Key:
IRAK4 [1] = molecular target: T1, IRAK4 (Homo sapiens, UniProt Q9NWZ3); assay: 2-hour 10 μM ATP Biochemical Assay (MesoScale Detection format; IRAK4 phosphorylation of biotin labeled IRAK1 activation loop peptide)
T1 sequence (Q9NWZ3 1-460): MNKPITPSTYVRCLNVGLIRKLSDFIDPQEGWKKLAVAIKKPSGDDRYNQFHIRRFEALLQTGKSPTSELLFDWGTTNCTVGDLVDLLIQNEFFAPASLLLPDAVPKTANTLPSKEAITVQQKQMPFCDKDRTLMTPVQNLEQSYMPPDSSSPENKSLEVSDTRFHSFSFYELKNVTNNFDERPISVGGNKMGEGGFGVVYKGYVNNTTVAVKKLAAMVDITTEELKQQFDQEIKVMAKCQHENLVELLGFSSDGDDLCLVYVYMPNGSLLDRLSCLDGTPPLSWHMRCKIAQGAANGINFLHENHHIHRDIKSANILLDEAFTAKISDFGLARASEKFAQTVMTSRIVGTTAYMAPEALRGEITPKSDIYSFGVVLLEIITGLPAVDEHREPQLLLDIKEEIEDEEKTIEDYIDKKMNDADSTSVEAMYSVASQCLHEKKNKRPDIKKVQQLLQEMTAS
Procedure, shortened: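 Kinase reaction run 2 h at 10 μM ATP with biotinylated IRAK1 activation-loop peptide, quenched with EDTA. Phospho-peptide captured on streptavidin MSD plates and detected with anti-phosphothreonine rabbit antibody plus Sulfo-Tag anti-rabbit electrochemiluminescence.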

IRAK4 [2] = molecular target: T1, IRAK4; assay: 2-hour 1 mM ATP IRAK4 Biochemical assay (as above, but with 100 pM IRAK4 and 1 mM ATP); conditions: IRAK4 MSD BIOCHEMICAL (1 mM ATP) IC50 (μM), 100 pM IRAK4, 2 hours
Procedure, shortened: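 Run with 100 pM IRAK4 and 1 mM ATP for 2 hours, quenched with EDTA pH 8. Phosphorylated biotinylated peptide captured on streptavidin MSD plates and detected with anti-phosphothreonine antibody plus Sulfo-Tag secondary by electrochemiluminescence.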

[3] = IRAK4 MSD BIOCHEMICAL (10 μM ATP) IC50 (μM), 1 nM IRAK4, 2 hours

Structure (SMILES)	IC50 (IRAK4 [1]; [3])	IC50 (IRAK4 [2])	IC50 (IRAK4 [1]; read-out: IRAK4 MSD BIOCHEMICAL (10 μM ATP) IC50, 1 nM IRAK4, 2 hours)
O=C1CC[C@@H](CCOc2cc3nc(C4CC4)cn3cc2NC(=O)c2cccc(C(F)F)n2)N1 [Example 73, (S)—N-(2-cyclopropyl-7-(2-(5-oxopyrrolidin-2-yl)ethoxy)imidazo[1,2-a]pyridin-6-yl)-6-(difluoromethyl)picolinamide]	0.011 µM	0.032 µM	–
CCOc1cc2nc(C(C)(C)C#N)cn2cc1NC(=O)c1coc(C(C)C)n1 [Example 358, N-(2-(2-cyanopropan-2-yl)-7-ethoxyimidazo[1,2-a]pyridin-6-yl)-2-isopropyloxazole-4-carboxamide]	0.006 µM	0.014 µM	–
CCOc1cc2nc(CC3CCOC3)cn2cc1NC(=O)c1cccc(OC)n1 (stereo not shown) [Example 134, N-(7-ethoxy-2-((tetrahydrofuran-3-yl)methyl)imidazo[1,2-a]pyridin-6-yl)-6-methoxypicolinamide]	0.002 µM	0.009 µM	–
CCOc1cc2nc([C@@H](O)C3CC3)cn2cc1NC(=O)c1cccc(C(F)(F)F)n1 (single isomer, unassigned) [Example 169]	0.003 µM	0.009 µM	–
CCOc1cc2nc(C3CN(CCOC)C3)cn2cc1NC(=O)c1cccc(C(F)F)n1 [Example 80, 6-(difluoromethyl)-N-(7-ethoxy-2-(1-(2-methoxyethyl)azetidin-3-yl)imidazo[1,2-a]pyridin-6-yl)picolinamide]	0.002 µM	0.005 µM	–
CCOc1cc2nc([C@H](O)C3CC3)cn2cc1NC(=O)c1cccc(C(F)(F)F)n1 (single isomer, unassigned) [Example 170]	0.004 µM	0.012 µM	–
CC1(C)CC(Oc2cc3nc(C4CCOCC4)cn3cc2NC(=O)c2cccc(C(F)F)n2)CO1 (stereo not shown) [Example 184, 6-(difluoromethyl)-N-(7-((5,5-dimethyltetrahydrofuran-3-yl)oxy)-2-(tetrahydro-2H-pyran-4-yl)imidazo[1,2-a]pyridin-6-yl)picolinamide]	0.001 µM	0.002 µM	–
CCOc1cc2nc(CC3COCCO3)cn2cc1NC(=O)c1cccc(C(F)F)n1 (stereo not shown) [Example 83, N-(2-((1,4-dioxan-2-yl)methyl)-7-ethoxyimidazo[1,2-a]pyridin-6-yl)-6-(difluoromethyl)picolinamide]	0.001 µM	0.005 µM	–
CCOc1cc2nc(C3CCOC3)cn2cc1NC(=O)c1cccc(C(F)(F)F)n1 (stereo not shown) [Example 59, N-(7-ethoxy-2-(tetrahydrofuran-3-yl)imidazo[1,2-a]pyridin-6-yl)-6-(trifluoromethyl)picolinamide]	0.002 µM	0.003 µM	–
CCOc1cc2nc(C3CCOCC3)cn2cc1NC(=O)c1cccc(C2CC2)n1 [Example 366, 6-cyclopropyl-N-(7-ethoxy-2-(tetrahydro-2H-pyran-4-yl)imidazo[1,2-a]pyridin-6-yl)picolinamide]	0.003 µM	0.004 µM	–
CCOc1cc2nc(C3CCN(C(C)=O)C3)cn2cc1NC(=O)c1cccc(C(F)(F)F)n1 (stereo not shown) [Example 69, N-(2-(1-acetylpyrrolidin-3-yl)-7-ethoxyimidazo[1,2-a]pyridin-6-yl)-6-(trifluoromethyl)picolinamide]	0.001 µM	0.001 µM	–
CCOc1cc2nc(C3CCOCC3)cn2cc1NC(=O)c1cccc(N(C)C)n1 [Example 237, 6-(dimethylamino)-N-(7-ethoxy-2-(tetrahydro-2H-pyran-4-yl)imidazo[1,2-a]pyridin-6-yl)picolinamide]	0.001 µM	0.005 µM	–
CCOc1cc2nc(C34CC(C#N)(C3)C4)cn2cc1NC(=O)c1cccc(C(F)(F)F)n1 [Example 521, N-(2-(3-cyanobicyclo[1.1.1]pentan-1-yl)-7-ethoxyimidazo[1,2-a]pyridin-6-yl)-6-(trifluoromethyl)picolinamide 2,2,2-trifluoroacetate]	0.001 µM	0.001 µM	–
CCOc1cc2nc(C3CCOCC3)cn2cc1NC(=O)c1ccn2c1CCCC2 [Example 222, N-(7-ethoxy-2-(tetrahydro-2H-pyran-4-yl)imidazo[1,2-a]pyridin-6-yl)-5,6,7,8-tetrahydroindolizine-1-carboxamide]	0.01 µM	0.041 µM	–
CCOc1cc2nc(CC3CCOC3)cn2cc1NC(=O)c1cccn(C)c1=O (stereo not shown) [Example 373, N-(7-ethoxy-2-((tetrahydrofuran-3-yl)methyl)imidazo[1,2-a]pyridin-6-yl)-1-methyl-2-oxo-1,2-dihydropyridine-3-carboxamide]	0.008 µM	0.028 µM	–
CCOc1cc2nc(CC3CCOC3)cn2cc1NC(=O)c1ccn(CC(F)F)n1 (stereo not shown) [Example 125, 1-(2,2-difluoroethyl)-N-(7-ethoxy-2-((tetrahydrofuran-3-yl)methyl)imidazo[1,2-a]pyridin-6-yl)-1H-pyrazole-3-carboxamide]	0.004 µM	0.01 µM	–
N#CCOc1cc2nc(C3CCOCC3)cn2cc1NC(=O)c1cccc(C(F)F)n1 [Example 172, N-(7-(cyanomethoxy)-2-(tetrahydro-2H-pyran-4-yl)imidazo[1,2-a]pyridin-6-yl)-6-(difluoromethyl)picolinamide]	0.002 µM	0.004 µM	–
CCOc1cc2nc(C3CCOCC3)cn2cc1NC(=O)c1cccc(OC2CCC2)n1 [Example 236, 6-cyclobutoxy-N-(7-ethoxy-2-(tetrahydro-2H-pyran-4-yl)imidazo[1,2-a]pyridin-6-yl)picolinamide]	0.006 µM	0.019 µM	–
CN1CCC(Oc2cc3nc(C4CCOCC4)cn3cc2NC(=O)c2cccc(C(F)F)n2)C1=O (stereo not shown) [Example 181, 6-(difluoromethyl)-N-(7-((1-methyl-2-oxopyrrolidin-3-yl)oxy)-2-(tetrahydro-2H-pyran-4-yl)imidazo[1,2-a]pyridin-6-yl)picolinamide]	0.001 µM	0.002 µM	–
CCOc1cc2nc(C(F)C3CCOC3)cn2cc1NC(=O)c1cccc(C(F)(F)F)n1 (single isomer, unassigned) [Example 144]	0.001 µM	0.001 µM	–
CCOc1cc2nc(C[C@@H]3CCOC3)cn2cc1NC(=O)c1cccc(C(F)F)n1 (single isomer, unassigned) [Example 16]	0.001 µM	0.001 µM	–
CCOc1nc2nc(CC3CCOC3)cn2cc1NC(=O)c1cccc(C(F)(F)F)n1 (single isomer, unassigned) [Example 94]	–	0.004 µM	0.001 µM
CCOc1cc2nc(C3CC(F)(F)C3)cn2cc1NC(=O)c1cccc(C(F)(F)F)n1 [Example 33, N-(2-(3,3-difluorocyclobutyl)-7-ethoxyimidazo[1,2-a]pyridin-6-yl)-6-(trifluoromethyl)picolinamide]	0.003 µM	0.011 µM	–
CCOc1cc2nc(C(C)(C)C#N)cn2cc1NC(=O)c1coc(C2CC2)n1 [Example 360, N-(2-(2-cyanopropan-2-yl)-7-ethoxyimidazo[1,2-a]pyridin-6-yl)-2-cyclopropyloxazole-4-carboxamide]	0.006 µM	0.005 µM	–
CCOc1cc2nc([C@H]3C[C@@H](OC(C)C)C3)cn2cc1NC(=O)c1cccc(C(F)F)n1 [Example 136, 6-(difluoromethyl)-N-(7-ethoxy-2-((1s,3s)-3-isopropoxycyclobutyl)imidazo[1,2-a]pyridin-6-yl)picolinamide]	0.001 µM	0.002 µM	–
CCOc1nc2nc(C3CCOCC3)cn2cc1NC(=O)c1cccc(OC)n1 [Example 368, N-(7-ethoxy-2-(tetrahydro-2H-pyran-4-yl)imidazo[1,2-a]pyrimidin-6-yl)-6-methoxypicolinamide]	0.008 µM	0.016 µM	–
